Data published in patent US10202361B2, “Pyridazinones as herbicides” (E I DU PONT DE NEMOURS AND COMPANY, priority 2014, dated 2019).

Experiments:
Test in all cases: Test E pre-/postemergence greenhouse herbicide test
Assay type in all cases: in vivo
[1] = tested on: cocklebur (common cocklebur, Xanthium strumarium); conditions: Preemergence, scale 0 to 100
[2] = tested on: sandbur (southern sandbur, Cenchrus echinatus); conditions: scale 0 to 100
Excerpt: (§1) Seeds of plant species selected from corn (Zea mays), soybean (Glycine max), lambsquarters (Chenopodium album), poinsettia, wild (wild poinsettia, Euphorbia heterophylla), pigweed, palmer (palmer pigweed, Amaranthus palmeri), waterhemp (common waterhemp, Amaranthus rudis), surinam grass (Brachiaria decumbens), crabgrass, large (large crabgrass Digitaria sanguinalis), crabgrass, Brazil (Brazilian crabgrass, Digitaria horizontalis), panicum, fall (fall panicum, Panicum dichotomiflorum), foxtail, giant (giant foxtail, Setaria faberii), foxtail, green (green foxtail, Setaria viridis), goosegrass (Eleusine indica), johnsongrass (Sorghum halepense), ragweed (common ragweed, Ambrosia elatior), barnyardgrass (Echinochloa crus-galli), sandbur (southern sandbur, Cenchrus echinatus), arrowleaf sida (Sida rhombifolia), ryegrass, Italian (Italian ryegrass, Lolium multiflorum), dayflower, VA (Virginia dayflower, Commelina virginica), field bindweed (Convolvulus arvensis), cocklebur (common cocklebur, Xanthium strumarium), morningglory (Ipomoea coccinea), nightshade (eastern black nightshade, Solanum ptycanthum), kochia (Kochia scoparia), nutsedge, yellow (yellow nutsedge, Cyperus esculentus), smartweed (ladysthumb smartweed, Polygonum persicaria), velvetleaf (Abutilon theophrasti), and beggarticks (hairy beggarticks, Bidens pilosa), were planted into a silt loam soil and treated preemergence with test chemicals formulated in a non-phytotoxic solvent mixture which included a surfactant.
(§2) At the same time, plants from these crop and weed species and also waterhemp_RES1, (ALS & Triazine resistant common waterhemp, Amaranthus rudis), and waterhemp_RES2, (ALS & HPPD resistant common waterhemp, Amaranthus rudis) were planted in pots containing Redi-Earth® planting medium (Scotts Company, 14111 Scottslawn Road, Marysville, Ohio 43041) comprising spaghnum peat moss, vermiculite, wetting agent and starter nutrients were treated with postemergence applications of test chemicals formulated in the same manner. Plants ranged in height from 2 to 18 cm for postemergence treatments (1- to 4-leaf stage). Treated plants and controls were maintained in a greenhouse for 14 to 21 d, after which time all species were compared to controls and visually evaluated. Plant response ratings, summarized in Table E, are based on a scale of 0 to 100 where 0 is no effect and 100 is complete control. A dash (-) response means no test result.

[3] = tested on: nightshade (eastern black nightshade, Solanum ptycanthum); conditions: Preemergence, scale 0 to 100
Excerpt: as §1, §2

COc1cc(=O)n(-c2ccc(C(F)(F)F)cc2)nc1Cc1ccnc(C(F)(F)F)c1 [Compound 16, 5-methoxy-2-[4-(trifluoromethyl)phenyl]-6-[[2-(trifluoromethyl)-4-pyridinyl]methyl]-3(2H)-pyridazinone]
Plant response rating: Cocklebur ([1]; 125 g ai/ha): 0 | Plant response rating: Cocklebur ([1]; 250 g ai/ha): 0 | Plant response rating: Sandbur ([2]; Postemergence, 62 g ai/ha): 30 | Plant response rating: Sandbur ([2]; Postemergence, 125 g ai/ha): 35 | Plant response rating: Sandbur ([2]; Postemergence, 250 g ai/ha): 50 | Plant response rating: Sandbur ([2]; Preemergence, 62 g ai/ha): 40 | Plant response rating: Sandbur ([2]; Preemergence, 125 g ai/ha): 65 | Plant response rating: Sandbur ([2]; Preemergence, 250 g ai/ha): 80 | Plant response rating: Nightshade ([3]; 62 g ai/ha): 80 | Plant response rating: Nightshade ([3]; 125 g ai/ha): 100 | Plant response rating: Nightshade ([3]; 250 g ai/ha): 100

CCOc1cc(=O)n(-c2ccc(F)cc2)nc1Cc1ccnc(C(F)(F)F)c1 [Compound 25, 5-ethoxy-2-(4-fluorophenyl)-6-[[2-(trifluoromethyl)-4-pyridinyl]methyl]-3 (2H)-pyridazinone]
Plant response rating: Cocklebur ([1]; 8 g ai/ha): 0 | Plant response rating: Cocklebur ([1]; 16 g ai/ha): 50 | Plant response rating: Cocklebur ([1]; 31 g ai/ha): 20 | Plant response rating: Cocklebur ([1]; 62 g ai/ha): 65 | Plant response rating: Cocklebur ([1]; 125 g ai/ha): 65 | Plant response rating: Sandbur ([2]; Preemergence, 8 g ai/ha): 0 | Plant response rating: Sandbur ([2]; Preemergence, 16 g ai/ha): 0 | Plant response rating: Sandbur ([2]; Preemergence, 31 g ai/ha): 20 | Plant response rating: Sandbur ([2]; Preemergence, 62 g ai/ha): 30 | Plant response rating: Sandbur ([2]; Preemergence, 125 g ai/ha): 60 | Plant response rating: Nightshade ([3]; 8 g ai/ha): 5 | Plant response rating: Nightshade ([3]; 16 g ai/ha): 50 | Plant response rating: Nightshade ([3]; 31 g ai/ha): 80 | Plant response rating: Nightshade ([3]; 62 g ai/ha): 98 | Plant response rating: Nightshade ([3]; 125 g ai/ha): 100
